Consider 18 compounds from patent US10457667B2, “Indolin-2-one derivatives” (Hoffmann-La Roche Inc., priority 2015, dated 2019).

Molecules are shown by their SMILES.

The target in the test is T1, mouse ENT-1 transporter (Mus musculus, UniProt Q9JIM1).
T1 construct: expressed in transfected cells
T1 sequence (Q9JIM1 1-460): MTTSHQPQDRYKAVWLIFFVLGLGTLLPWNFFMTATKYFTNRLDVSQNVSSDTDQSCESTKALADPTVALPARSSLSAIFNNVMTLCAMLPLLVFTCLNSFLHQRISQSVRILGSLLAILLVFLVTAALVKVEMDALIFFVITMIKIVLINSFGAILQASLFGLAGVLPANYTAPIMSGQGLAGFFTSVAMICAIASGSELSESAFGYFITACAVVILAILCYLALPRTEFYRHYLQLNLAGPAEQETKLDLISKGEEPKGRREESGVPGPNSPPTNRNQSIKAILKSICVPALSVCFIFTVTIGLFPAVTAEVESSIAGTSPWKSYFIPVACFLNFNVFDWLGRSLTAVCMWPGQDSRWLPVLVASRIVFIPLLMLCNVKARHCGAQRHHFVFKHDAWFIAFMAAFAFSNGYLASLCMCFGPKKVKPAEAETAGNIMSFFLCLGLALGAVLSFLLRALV
In words: ENT1 adenosine uptake inhibition ([3H]-adenosine transport activity). The test is classed as cell-based. Conditions: stable cells expressing mouse ENT-1; [2,8-3H]-adenosine 6 nM, 20 min. On the procedure:
To measure adenosine transport activity of ENT-1 mammalian cells, stable cells expressing the mouse ENT-1 transporter were plated on day 1 in 96-well culture plates at the density of 60,000 cells/well, in complete DMEM/F12 medium supplemented with glutamax, 10% FBS and 10 μg/ml puromycin. On day 2, the medium was aspirated and the cells were washed twice with uptake buffer (10 mM Hepes-Tris, pH 7.4 containing 150 mM NaCl, 1 mM CaCl2, 2.5 mM KCl, 2.5 mM MgSO4, 10 mM D-glucose) (UB). For inhibition experiments, cells were then incubated at RT with various concentrations of compounds with 1% DMSO final. Non-specific uptake was defined in the presence of 10 μM S-(4-Nitrobenzyl)-6-thioinosine (NBTI, Sigma Cat #N2255).
A solution containing [2,8-^3H]-adenosine 6 nM (40 Ci/mmol, American Radiolabeled chemicals Inc, Cat #ART 0287A) was then immediately added to the wells. The plates were then incubated for 20 min with gentle shaking and the reaction was stopped by aspiration of the mixture and washing (three times) with ice-cold UB. The cells were lysed by the addition of scintillation liquid, shaken 3 hours and the radioactivity in the cells was estimated using a microplates scintillation counter (TopCount NXT, Packard).

What is called IC50 is the concentration that gives 50% inhibition. In turn, `COc1cnc(N2C(=O)C(C)(C)c3ccc(-c4cnc(C)nc4)cc32)cn1` [Example 11, 1-(5-Methoxypyrazin-2-yl)-3,3-dimethyl-6-(2-methylpyrimidin-5-yl)indolin-2-one] had an IC50 of 0.272 µM.
As for `Cc1ncc(-c2ccc3c(c2)N(c2ccc(O)nn2)C(=O)C3(C)C)cn1` [Example 13, 1-(6-Hydroxypyridazin-3-yl)-3,3-dimethyl-6-(2-methylpyrimidin-5-yl)indolin-2-one], the figure is 0.615 µM; as for `COc1cncc(N2C(=O)C3(CCC3)c3ccc(-c4cnc(C)nc4)cc32)c1` [Example 19, 1′-(5-Methoxypyridin-3-yl)-6′-(2-methylpyrimidin-5-yl)spiro[cyclobutane-1,3′-indolin]-2′-one], 0.785 µM; as for `Cc1ncc(-c2ccc3c(c2)N(c2ccc(OC(F)(F)F)cn2)C(=O)C3(C)C)cn1` [Example 14, 3,3-Dimethyl-6-(2-methylpyrimidin-5-yl)-1-(5-(trifluoromethoxy)pyridin-2-yl)indolin-2-one], 0.118 µM.
Consider `COc1cccc(N2C(=O)C(C)(C)c3ccc(-c4cnc(C)nc4)cc32)c1` [Example 6, 1-(3-Methoxyphenyl)-3,3-dimethyl-6-(2-methylpyrimidin-5-yl)indolin-2-one], for which the IC50 is 0.289 µM.
As for `Cc1ncc(-c2ccc3c(c2)N(c2cnc(OC4COC4)nc2)C(=O)C3(C)C)cn1` [Example 17, 3,3-Dimethyl-6-(2-methylpyrimidin-5-yl)-1-(2-(oxetan-3-yloxy)pyrimidin-5-yl)indolin-2-one], the figure is 0.823 µM; as for `COc1cc(N2C(=O)C(C)(C)c3ccc(-c4cnc(C)nc4)cc32)cnc1Cl` [Example 9, 1-(6-Chloro-5-methoxypyridin-3-yl)-3,3-dimethyl-6-(2-methylpyrimidin-5-yl)indolin-2-one], 0.154 µM; as for `COc1ccc(N2C(=O)C3(CCC3)c3ccc(-c4cnc(C)nc4)cc32)nn1` [Example 20, 1′-(6-Methoxypyridazin-3-yl)-6′-(2-methylpyrimidin-5-yl)spiro[cyclobutane-1,3′-indolin]-2′-one], 0.13 µM.
As for `Cc1ncc(-c2ccc3c(c2)N(c2ccc4onc(C)c4c2)C(=O)C3(C)C)cn1` [Example 18, 3,3-Dimethyl-1-(3-methylbenzo[d]isoxazol-5-yl)-6-(2-methylpyrimidin-5-yl)indolin-2-one], the figure is 0.0509 µM; as for `COc1cc(N2C(=O)C(C)(C)c3ccc(-c4cnc(C)nc4)cc32)cnc1C` [Example 3, 1-(5-Methoxy-6-methylpyridin-3-yl)-3,3-dimethyl-6-(2-methylpyrimidin-5-yl)indolin-2-one], 0.242 µM; as for `Cc1ncc(-c2ccc3c(c2)N(c2cnc4c(c2)OCCN4)C(=O)C3(C)C)cn1` [Example 8, 1-(3,4-Dihydro-2H-pyrido[3,2-b][1,4]oxazin-7-yl)-3,3-dimethyl-6-(2-methylpyrimidin-5-yl)indolin-2-one], 0.951 µM.
The same measure for `CCOc1cncc(N2C(=O)C(C)(C)c3ccc(-c4cnc(C)nc4)cc32)c1` [Example 5, 1-(5-Ethoxypyridin-3-yl)-3,3-dimethyl-6-(2-methylpyrimidin-5-yl)indolin-2-one]: 0.0643 µM; for `COc1cc(N2C(=O)C(C)(C)c3ccc(-c4cnc(C)nc4)cc32)cnc1C1CC1` [Example 10, 1-(6-Cyclopropyl-5-methoxypyridin-3-yl)-3,3-dimethyl-6-(2-methylpyrimidin-5-yl)indolin-2-one]: 0.139 µM.
`Cc1ncc(-c2ccc3c(c2)N(c2ccc(OCC(F)(F)F)nc2)C(=O)C3(C)C)cn1` [Example 16, 3,3-Dimethyl-6-(2-methylpyrimidin-5-yl)-1-(6-(2,2,2-trifluoroethoxy)pyridin-3-yl)indolin-2-one] yielded an IC50 of 0.811 µM.
The same measure for `Cc1ncc(-c2ccc3c(c2)N(c2cncc(OC(C)C)c2)C(=O)C3(C)C)cn1` [Example 7, 1-(5-Isopropoxypyridin-3-yl)-3,3-dimethyl-6-(2-methylpyrimidin-5-yl)indolin-2-one]: 0.183 µM.
The same measure for `COc1ncc(N2C(=O)C(C)(C)c3ccc(-c4cnc(C)nc4)cc32)cn1` [Example 15, 1-(2-Methoxypyrimidin-5-yl)-3,3-dimethyl-6-(2-methylpyrimidin-5-yl)indolin-2-one]: 0.843 µM.
As for `COc1cncc(N2C(=O)C(C)(C)c3ccc(-c4cnc(C)nc4)cc32)n1` [Example 1, 1-(6-Methoxypyrazin-2-yl)-3,3-dimethyl-6-(2-methylpyrimidin-5-yl)indolin-2-one], the figure is 0.073 µM; as for `COc1cc(N2C(=O)C(C)(C)c3ccc(-c4cnc(C)nc4)cc32)nc(OC)n1` [Example 4, 1-(2,6-Dimethoxypyrimidin-4-yl)-3,3-dimethyl-6-(2-methylpyrimidin-5-yl)indolin-2-one], 0.11 µM.
